Measured values taken from patent US20240262830A1, “IRE1A MODULATORS AND USES THEREOF” (Nimbus Iaso, Inc., priority 2020, published 2024).

Legend:
hIRE1a = assay: XBP1-Luc cell assay; assay type: cell-based; conditions: Homo sapiens; HEK293-pLVX-XBP1.fluc-IRES-Puro cells, 600 nM Thapsigargin 1 hour, then inhibitor 6 hours; read-out: fLuc_XBP1_hIRE1a_HEK293_IC50 (IC50)
Description: HEK293-pLVX-XBP1.fluc-IRES-Puro cells (ChemPartner) were collected into DMEM (Invitrogen, 11995-065) with 10% FBS (BI, 04-002-1A). Cells were seeded at 1.5E4 cells/well in BioCoat Poly-D-Lysine Black/Clear flat bottom 96 well plate (Corning, 356640) and incubated overnight at 37° C. and 5% CO2. Cells were treated with 600 nM Thapsigargin (Sigma, T9033) for 1 hour at 37° C. and 5% CO2 prior to inhibitor addition. A titration of inhibitor, starting at 30 μM was added to wells for an additional 6 hours at 37° C. and 5% CO2. 100 μl of Steady-Glo Luciferase assay reagent (Promega, E2550) was added to plate and the plate was shaken for 2 minutes. Signal was read using EnSpire (Perkin Elmer).

[1] = biological target: T1, truncated human IRE1a WT protein, containing the catalytic part (aa 547-977) (Homo sapiens, UniProt O75460); assay: IRE1a biochemical enzyme splice assay; conditions: 20 nM protein, 500 nM fluorescently quenched IRE1a substrate, 40 min at room temperature; read-out: EnzymeSplice_hIRE1a_IC50 (IC50)
T1 construct: containing the catalytic part (aa 547-977); made in house
Description: A truncated human IRE1a WT protein, containing the catalytic part (aa 547-977) was expressed in baculovirus. The purified protein (20 nM) was incubated with a fluorescently quenched IRE1a substrate (500 nM; 5′/6-FAM-CAGUCCGCAGCACUG-BHQ-1/3′) and a titration of inhibitor, starting at 10 μM (final DMSO concentration=1%) for 40 min at room temperature in assay buffer. Reactions were carried out in a final volume of […] in a 384 well assay plate. The reaction was stopped, and the plate was spun for 1 minute at 1000 rpm. The fluorescence intensity of the IRE1a-substrate was measured using an fluorescent plate reader (Ex 485 nm/Em 535 nm, Perkin Elmer Envision).

T1 sequence (O75460 547-977): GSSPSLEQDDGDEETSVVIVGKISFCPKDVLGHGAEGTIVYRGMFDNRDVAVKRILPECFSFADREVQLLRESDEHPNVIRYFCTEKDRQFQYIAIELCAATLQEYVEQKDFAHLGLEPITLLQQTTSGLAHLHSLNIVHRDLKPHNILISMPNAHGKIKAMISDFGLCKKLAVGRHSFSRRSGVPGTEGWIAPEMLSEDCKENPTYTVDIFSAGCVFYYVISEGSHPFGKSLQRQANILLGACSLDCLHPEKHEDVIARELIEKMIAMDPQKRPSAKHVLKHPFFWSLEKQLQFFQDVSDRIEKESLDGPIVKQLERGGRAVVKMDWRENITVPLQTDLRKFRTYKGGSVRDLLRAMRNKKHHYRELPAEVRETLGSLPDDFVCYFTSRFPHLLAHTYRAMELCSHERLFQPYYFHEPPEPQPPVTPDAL

| SMILES | IC50 (hIRE1a) [nM] | IC50 [1] [nM] |
| --- | --- | --- |
| CCc1cc(-c2ccc3c(NS(=O)(=O)c4ccccc4Cl)ncnn23)cc2cnc(NC[C@H]3CCCNC3)nc12 [Compound I-8, (S)-2-chloro-N-(7-(8-ethyl-2-((piperidin-3-ylmethyl)amino)quinazolin-6-yl)pyrrolo[2,1-f][1,2,4]triazin-4-yl)benzenesulfonamide] | 1000 to 10000 | < 100 |
| CCc1cc(-c2ccc3c(NS(=O)(=O)CCC(F)(F)F)ncnn23)cc2cnc(N[C@H]3CCCNC3)nc12 [Compound I-9, (S)—N-(7-(8-ethyl-2-(piperidin-3-ylamino)quinazolin-6-yl)pyrrolo[2,1-f][1,2,4]triazin-4-yl)-3,3,3-trifluoropropane-1-sulfonamide] | 1000 to 10000 | < 100 |
| CCc1cc(-c2ccc3c(NS(=O)(=O)c4ccccc4Cl)ncnn23)cc2cnc(N[C@H]3CCNC3)nc12 [Compound I-11, (S)-2-chloro-N-(7-(8-ethyl-2-(pyrrolidin-3-ylamino)quinazolin-6-yl)pyrrolo[2,1-f][1,2,4]triazin-4-yl)benzenesulfonamide] | 1000 to 10000 | < 100 |
| CCc1cc(-c2ccc3c(NS(=O)(=O)c4ccccc4Cl)ncnn23)cc2cnc(N[C@H]3CCCCNC3)nc12 [Compound I-12, (S)—N-(7-(2-(azepan-3-ylamino)-8-ethylquinazolin-6-yl)pyrrolo[2,1-f][1,2,4]triazin-4-yl)-2-chlorobenzenesulfonamide] | < 1000 | < 100 |
| CCc1cc(-c2ccc3c(NS(=O)(=O)c4ccccc4Cl)ncnn23)cc2cnc(N[C@H]3CC[C@H](O)C3)nc12 [Compound I-14, 2-chloro-N-(7-(8-ethyl-2-(((1S,3S)-3-hydroxycyclopentyl)amino)quinazolin-6-yl)pyrrolo[2,1-f][1,2,4]triazin-4-yl)benzenesulfonamide] | > 10000 | < 100 |
| CCc1cc(-c2ccc3c(NS(=O)(=O)C4CCCC4)ncnn23)cc2cnc(N[C@H]3CCCNC3)nc12 [Compound I-15, (S)—N-(7-(8-ethyl-2-(piperidin-3-ylamino)quinazolin-6-yl)pyrrolo[2,1-f][1,2,4]triazin-4-yl)cyclopentanesulfonamide] | < 1000 | < 100 |
| CCc1cc(-c2ccc3c(NS(=O)(=O)c4ccccc4Cl)ncnn23)cc2cnc(NC[C@@H]3CCCNC3)nc12 [Compound I-17, (R)-2-chloro-N-(7-(8-ethyl-2-((piperidin-3-ylmethyl)amino)quinazolin-6-yl)pyrrolo[2,1-f][1,2,4]triazin-4-yl)benzenesulfonamide] | > 10000 | 100 to 1000 |
| CCc1cc(-c2ccc3c(NS(=O)(=O)c4ccccc4Cl)ncnn23)cc2cnc(NC[C@@H]3CCCCN3)nc12 [Compound I-18, (S)-2-chloro-N-(7-(8-ethyl-2-((piperidin-2-ylmethyl)amino)quinazolin-6-yl)pyrrolo[2,1-f][1,2,4]triazin-4-yl)benzenesulfonamide] | > 10000 | 100 to 1000 |
| CCc1cc(-c2n[nH]c3c(NS(=O)(=O)c4ccccc4Cl)cccc23)cc2cnc(N[C@H]3CCCNC3)nc12 [Compound I-19, (S)-2-chloro-N-(3-(8-ethyl-2-(piperidin-3-ylamino)quinazolin-6-yl)-1H-indazol-7-yl)benzenesulfonamide] | < 1000 | < 100 |
| CCc1cc(-c2ccc3c(NC[C@H](O)CC)ncnn23)cc2cnc(N[C@H]3CCCNC3)nc12 [Compound I-20, (R)-1-((7-(8-ethyl-2-(((S)-piperidin-3-yl)amino)quinazolin-6-yl)pyrrolo[2,1-f][1,2,4]triazin-4-yl)amino)butan-2-ol] | 1000 to 10000 | 100 to 1000 |
| CCc1cc(-c2ccc3c(NS(=O)(=O)Cc4cccc(F)c4F)ncnn23)cc2cnc(N[C@H]3CCCNC3)nc12 [Compound I-21, (S)-1-(2,3-difluorophenyl)-N-(7-(8-ethyl-2-(piperidin-3-ylamino)quinazolin-6-yl)pyrrolo[2,1-f][1,2,4]triazin-4-yl)methanesulfonamide] | < 1000 | < 100 |
| CCc1cc(-c2ccc3c(NS(=O)(=O)c4ccccc4Cl)ncnn23)cc2cnc(N[C@H]3CCCNC3)nc12 [Compound I-22, (S)-2-chloro-N-(7-(8-ethyl-2-(piperidin-3-ylamino)quinazolin-6-yl)pyrrolo[2,1-f][1,2,4]triazin-4-yl)benzenesulfonamide] | < 1000 | < 100 |
| CCc1cc(-c2csc3c(NS(=O)(=O)c4ccccc4Cl)ncnc23)cc2cnc(N[C@H]3CCCNC3)nc12 [Compound I-23, (S)-2-chloro-N-(7-(8-ethyl-2-(piperidin-3-ylamino)quinazolin-6-yl)thieno[3,2-d]pyrimidin-4-yl)benzenesulfonamide] | 1000 to 10000 | < 100 |
| CCc1cc(-c2ccc3c(NS(=O)(=O)Cc4ccccc4Cl)ncnn23)cc2cnc(N[C@H]3CCCNC3)nc12 [Compound I-25, (S)-1-(2-chlorophenyl)-N-(7-(8-ethyl-2-(piperidin-3-ylamino)quinazolin-6-yl)pyrrolo[2,1-f][1,2,4]triazin-4-yl)methanesulfonamide] | < 1000 | < 100 |
| CCc1cc(-c2ccc3c(NS(=O)(=O)c4ccccc4)ncnn23)cc2cnc(N[C@H]3CCCNC3)nc12 [Compound I-26, (S)—N-(7-(8-ethyl-2-(piperidin-3-ylamino)quinazolin-6-yl)pyrrolo[2,1-f][1,2,4]triazin-4-yl)benzenesulfonamide] | 1000 to 10000 | < 100 |
| CCc1cc(-c2ccc3c(NS(=O)(=O)c4ccc(OC(F)(F)F)cc4)ncnn23)cc2cnc(N[C@H]3CCCNC3)nc12 [Compound I-27, (S)—N-(7-(8-ethyl-2-(piperidin-3-ylamino)quinazolin-6-yl)pyrrolo[2,1-f][1,2,4]triazin-4-yl)-4-(trifluoromethoxy)benzenesulfonamide] | 1000 to 10000 | 100 to 1000 |
| CCc1cc(-c2ccc3c(NS(=O)(=O)c4ccccc4Cl)ncnn23)cc2cnc(NC3CC4(COC4)C3)nc12 [Compound I-28, N-(7-(2-((2-oxaspiro[3.3]heptan-6-yl)amino)-8-ethylquinazolin-6-yl)pyrrolo[2,1-f][1,2,4]triazin-4-yl)-2-chlorobenzenesulfonamide] | > 10000 | 100 to 1000 |
| CCc1cc(-c2ccc3c(NS(=O)(=O)c4ccccc4Cl)ncnn23)cc2cnc(N[C@H]3CC[C@H](O)CC3)nc12 [Compound I-29, 2-chloro-N-(7-(8-ethyl-2-(((1r,4r)-4-hydroxycyclohexyl)amino)quinazolin-6-yl)pyrrolo[2,1-f][1,2,4]triazin-4-yl)benzenesulfonamide] | 1000 to 10000 | < 100 |
| CCc1cc(-c2ccc3c(NS(=O)(=O)N4CCCC4)ncnn23)cc2cnc(N[C@H]3CCCNC3)nc12 [Compound I-30, Pyrrolidine-1-sulfonic acid {7-[8-ethyl-2-(piperidin-3-ylamino)-quinazolin-6-yl]-pyrrolo[2,1-f][1,2,4]triazin-4-yl}-amide] | < 1000 | < 100 |
| CCc1cc(-c2ccc3c(NS(=O)(=O)c4ccccc4Cl)ncnn23)cc2cnc(N[C@@H]3CNC[C@H](C)C3)nc12 [Compound I-31] | < 1000 | < 100 |
| CCc1cc(-c2ccc3c(NS(=O)(=O)c4ccccc4Cl)ncnn23)cc2cnc(N[C@H]3CC[C@H](N)CC3)nc12 [Compound I-32] | < 1000 | < 100 |
| CCCS(=O)(=O)Nc1ncnn2c(-c3cc(CC)c4nc(N[C@H]5CCCNC5)ncc4c3)ccc12 [Compound I-33, (S)—N-(7-(8-ethyl-2-(piperidin-3-ylamino)quinazolin-6-yl)pyrrolo[2,1-f][1,2,4]triazin-4-yl)propane-1-sulfonamide] | < 1000 | < 100 |
